Data published in patent US20240122878A1 (priority 2021, published 2024).
Several values for one entry are separate records, joined by “and”; a condition that tells them apart may be missing. Identical values can stand only once. Like-named read-outs stand apart in the source and are kept apart here.

How the values were obtained:
[1] = system: patients with major depressive disorder; assay: Phase 2a cardiodynamic ECG evaluation (concentration-QTc and by-time point analysis); format: in vivo, human
Protocol: (§1) Timed PK assessments were performed on Day 1 and after approximately 23 hours post Day 1 dosing, and thus for the exposure-response analysis only the Day 1 ECG data is utilized.
The 12-lead digital ECG equipment was supplied and supported by the central ECG core lab vendor, eResearch Technology, Inc., ERT (Philadelphia, PA). After a supine rest period, ECGs were collected in triplicate at the pre-specific time points indicated within the study protocol and described below.
Twelve-lead ECGs were to be performed in triplicate approximately 1 minute apart after lying quietly for at least 3 min at: • Screening • Check-in (Day—1) • Day 1: 1 hour pre-dose and 2 hours, 4 hours, 6 hours, and 8 hours post-dose on Day 1 • Day 2: 1 hour pre-dose (corresponding to 23 hours post-dose on Day 1) and 2 hours, 4 hours, 6 hours, and 8 hours post-dose • Days 3-7: 2 hours post-dose • Day 8 • Prior to discharge on Day 9 • End of the observation period (Day 14)
The QT and RR value for each measured beat were used for HR correction. Three beats were measured on each of the triplicate ECGs at each time point. The mean value from each triplicate tracing was calculated, and then the mean of all available measurements from a nominal time point were used as the patient's reportable value at that time point. • 5. ECG Methodology: Central Laboratory
[published correction appears in J Pharmacokinet Pharmacodyn. […] J Pharmacokinet Pharmacodyn. […] In all calculations, concentrations in patients who received placebo were set to zero.
(§2) The geometric mean of the individual Cmax values for patients in each of the active dose groups was determined.
An unstructured covariance matrix was specified for the repeated measures at post-dose time points within patient.

[2] = Phase 2a study plasma pharmacokinetics; format: in vivo, human; conditions: for Cmax: human, in vivo, C-QTc population
Protocol: as §1
PK sampling was done on Day 1 at 1 hour pre-dose and 0.5, 1, 2, 4, 6, 8, and 12 hours post-dose. On Day 2 through Day 7, sampling was done 1 hour pre-dose. On Day 8, sampling was done approximately 24 hours after the last dose of study drug (on Day 7). On Day 9, sampling was done approximately 48 hours after the last dose (on Day 7).
as §2

healthy volunteers = assay: Phase 1 study esmethadone-112 concentration-QTc sub-analysis; format: in vivo, human
[3] = target: hERG (human ether-à-go-go-related gene) channel current (Homo sapiens, UniProt Q12809); assay: GLP hERG channel current study of esmethadone
hERG = hERG (Homo sapiens, UniProt Q12809); assay: GLP hERG channel current study of esmethadone; conditions: human
[4] = cited from earlier work
[5] = Phase 1 pharmacokinetics of immediate release esmethadone (Bernstein 2019); format: in vivo; conditions: human, plasma; 25 mg oral daily dosing ×10 days; read-out: Steady state Cmax
Protocol: […]. […] Therefore, dose proportionality and linearity after oral administration of each of the three molecules, based on the data from Bernstein 2019 and Foster 2004 are expected. […].
Steady state Curough concentrations (measured at Day 10) were 142.7, 326.2 and 338.8 ng/ml respectively.

[6] = linear mixed-effects model, C-QTc population

Sequence of hERG (Q12809 whole entry): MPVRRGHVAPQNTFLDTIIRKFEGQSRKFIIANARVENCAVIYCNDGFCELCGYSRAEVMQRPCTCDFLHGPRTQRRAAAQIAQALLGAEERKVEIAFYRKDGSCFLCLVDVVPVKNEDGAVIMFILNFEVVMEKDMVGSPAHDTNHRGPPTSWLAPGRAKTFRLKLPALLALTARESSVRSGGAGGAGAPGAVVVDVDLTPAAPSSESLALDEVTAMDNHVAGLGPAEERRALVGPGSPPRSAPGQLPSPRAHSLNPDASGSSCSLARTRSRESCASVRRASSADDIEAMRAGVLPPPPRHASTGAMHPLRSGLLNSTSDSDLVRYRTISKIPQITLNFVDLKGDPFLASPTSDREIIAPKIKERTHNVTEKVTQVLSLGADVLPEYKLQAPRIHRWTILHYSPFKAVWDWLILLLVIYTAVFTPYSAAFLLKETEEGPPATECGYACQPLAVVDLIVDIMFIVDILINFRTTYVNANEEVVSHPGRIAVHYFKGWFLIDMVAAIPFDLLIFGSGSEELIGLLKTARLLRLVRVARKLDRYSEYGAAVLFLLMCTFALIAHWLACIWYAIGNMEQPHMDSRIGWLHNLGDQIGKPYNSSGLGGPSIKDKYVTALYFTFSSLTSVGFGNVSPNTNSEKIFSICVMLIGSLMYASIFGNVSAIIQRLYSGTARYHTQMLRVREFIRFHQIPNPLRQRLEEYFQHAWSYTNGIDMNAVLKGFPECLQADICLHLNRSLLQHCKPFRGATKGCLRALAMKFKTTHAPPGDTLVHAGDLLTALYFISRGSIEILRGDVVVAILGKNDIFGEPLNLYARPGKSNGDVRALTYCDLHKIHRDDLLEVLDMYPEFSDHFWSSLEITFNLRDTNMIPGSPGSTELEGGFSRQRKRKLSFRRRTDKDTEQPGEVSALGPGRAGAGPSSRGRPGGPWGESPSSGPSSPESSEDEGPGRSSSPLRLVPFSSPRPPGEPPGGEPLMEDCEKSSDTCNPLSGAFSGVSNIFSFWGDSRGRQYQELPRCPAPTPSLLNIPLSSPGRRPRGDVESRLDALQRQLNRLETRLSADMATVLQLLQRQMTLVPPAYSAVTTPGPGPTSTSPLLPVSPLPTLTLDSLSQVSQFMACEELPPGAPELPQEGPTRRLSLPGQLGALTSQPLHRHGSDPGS
Sequence of hERG (human ether-à-go-go-related gene) channel current (Q12809 whole entry): as above

CCC(=O)C(C[C@H](C)N(C)C)(c1ccccc1)c1ccccc1 [esmethadone]
Model-predicted ΔΔQTcF at 10 ms Threshold concentration ([1]; 300 ng/ml, linear model, (90% CI)): 7.18 (4.36, 10.00) ms
Model-predicted ΔΔQTcF at geometric mean Cmax ([1]; 25 mg QD group after 75 mg loading dose, 265.2 ng/mL, linear model, (90% CI)): 6.7 ms and 6.71 ms and 6.71 (3.94, 9.48) ms
Maximum LS mean ΔΔQTcF, by-time point analysis ([1]; 25 mg dose group (75 mg loading), Day 2 pre-dose time point): 7.7 ms
Model-predicted ΔΔQTcF at geometric mean Cmax ([1]; 50 mg QD group after 100 mg loading dose, 337.8 ng/mL, linear model, (90% CI)): 7.7 ms and 7.69 ms and 7.69 (4.80, 10.58) ms
Maximum LS mean ΔΔQTcF, by-time point analysis ([1]; 50 mg dose group (100 mg loading), Day 1, 8 hour time point): 10.9 ms
Slope of the concentration-QTc relationship (esmethadone Slope) [1, 6]: 0.014 ms per ng/mL
Treatment effect-specific intercept (Treatment Effect) [1, 6]: 3.11 ms
ECG morphology changes ([1]; studied doses): no clinically significant ECG morphology changes
Effect on QTc ([1]; studied doses): modest, dose-dependent increase in QTc
Effect on heart rate, PR, or QRS ([1]; studied doses): no clinically significant effect
Highest PK values on Day 1 ([2]; 25 mg (75 mg Day 1)): 254.5 ng/mL
Highest PK values on Day 1 ([2]; 50 mg (100 mg Day 1)): 343.9 ng/mL
Cmax ([2]; 25 mg QD group, Day 1 after 75 mg loading dose): 265 ng/mL
Cmax ([2]; 50 mg QD group, Day 1 after 100 mg loading dose): 338 ng/mL
Effect on HR (healthy volunteers; Day 10): mild HR slowing
Peak ΔΔQTcF, time-based central tendency analysis (healthy volunteers; Day 10, 25 mg cohort): 11.5 ms
Peak ΔΔQTcF, time-based central tendency analysis (healthy volunteers; Day 10, 50 mg QD cohort): 26.8 ms
Peak ΔΔQTcF, time-based central tendency analysis (healthy volunteers; Day 10, 75 mg QD cohort): 28.8 ms
Subjects with pronounced QTcF prolongation (QTcF>60 ms or absolute QTcF>480 ms) (healthy volunteers; categorical analysis, any treatment group): no subjects
Effects on the PR or QRS intervals (healthy volunteers; in vivo): no clinically meaningful effects
IC50 [3]: 1 µM
Hill coefficient ([3]; GLP study): 0.8
inhibition at 0.3 µM (hERG): 27.3 ± 1.6%
inhibition at 1 µM (hERG): 48.8 ± 3.4%
inhibition at 3 μM (hERG): 68.6 ± 0.3%
inhibition at 10 µM (hERG): 88.6 ± 0.7%
Steady state Ctrough concentration (Day 10) ([4]; 25 mg): 142.7 ng/mL
Steady state Ctrough concentration (Day 10) ([4]; 50 mg): 326.2 ng/mL
Steady state Ctrough concentration (Day 10) ([4]; 75 mg): 338.8 ng/mL
Cmax [5]: 273 ng/mL
